Reference: article PMC10046369, “Low-Affinity/High-Selectivity Dopamine Transport Inhibition Sufficient to Rescue Cognitive Functions in the Aging Rat” (Biomolecules, 2023)

Assays:
Experiment in all cases: biochemical
Parameters in all cases: KINOMEscan competition binding panel, per cent of control
Settings in all cases: read-out: %Ctrl @ 2800nM
PRKG1 = PRKG1 (Homo sapiens, UniProt Q13976)
In short: (§1)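 Values are expressed as percent of control, calculated as ((test − positive control)/(negative control − positive control)) × 100, so lower numbers mean stronger hits. Binding was measured by KINOMEscan competition assay in a 450-kinase human panel including disease mutants, using the contractor's validated protocol.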

QSK = target: T1, QSK (Homo sapiens, UniProt Q9Y2K2)
T1 construct: gene SIK3
In short: as §1

NIM1 = target: T2, NIM1 (Homo sapiens, UniProt Q8IY84)
T2 construct: gene NIM1K
In short: as §1

TIE2 = target: T3, TIE2 (Homo sapiens, UniProt Q02763)
T3 construct: gene TEK
In short: as §1

KIT(L576P) = KIT(L576P) (Homo sapiens, UniProt P10721, L576P)
Chain of KIT(L576P) (P10721 whole entry L576P): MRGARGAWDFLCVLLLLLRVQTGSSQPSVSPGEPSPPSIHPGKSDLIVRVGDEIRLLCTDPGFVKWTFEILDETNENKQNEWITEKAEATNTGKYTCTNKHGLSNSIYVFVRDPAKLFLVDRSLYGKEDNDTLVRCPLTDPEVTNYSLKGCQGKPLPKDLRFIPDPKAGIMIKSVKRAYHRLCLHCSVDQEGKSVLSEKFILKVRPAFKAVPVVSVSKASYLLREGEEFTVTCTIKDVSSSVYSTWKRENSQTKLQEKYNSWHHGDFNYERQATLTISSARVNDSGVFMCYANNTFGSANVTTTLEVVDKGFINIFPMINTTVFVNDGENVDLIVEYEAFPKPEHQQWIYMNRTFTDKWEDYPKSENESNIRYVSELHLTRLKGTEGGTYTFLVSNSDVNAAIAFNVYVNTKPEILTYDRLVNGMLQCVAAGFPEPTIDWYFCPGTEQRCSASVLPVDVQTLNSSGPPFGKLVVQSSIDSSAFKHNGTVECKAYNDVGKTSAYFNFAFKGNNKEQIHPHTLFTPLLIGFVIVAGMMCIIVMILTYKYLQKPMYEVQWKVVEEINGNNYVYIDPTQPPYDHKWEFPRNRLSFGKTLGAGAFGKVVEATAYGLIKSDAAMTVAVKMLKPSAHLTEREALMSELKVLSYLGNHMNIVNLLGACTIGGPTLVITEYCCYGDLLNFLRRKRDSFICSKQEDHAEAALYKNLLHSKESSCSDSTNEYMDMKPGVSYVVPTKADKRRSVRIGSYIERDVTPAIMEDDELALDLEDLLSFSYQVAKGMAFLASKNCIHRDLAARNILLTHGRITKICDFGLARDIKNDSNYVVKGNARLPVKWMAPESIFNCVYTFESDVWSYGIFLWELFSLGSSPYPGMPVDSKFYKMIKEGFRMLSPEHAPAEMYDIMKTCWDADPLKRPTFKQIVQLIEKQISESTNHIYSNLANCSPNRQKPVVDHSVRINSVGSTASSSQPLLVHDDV
In short: as §1

PIK3CG = PIK3CG (Homo sapiens, UniProt P48736)
In short: as §1

ACVR2A = ACVR2A (Homo sapiens, UniProt P27037)
In short: as §1

HIPK3 = HIPK3 (Homo sapiens, UniProt Q9H422)
In short: as §1

[1] = target: T4, ABL1(F317I)-phosphorylated (Homo sapiens, UniProt P00519, F317I)
T4 construct: phosphorylated
In short: as §1

PIK3CA(Q546K) = PIK3CA(Q546K) (Homo sapiens, UniProt P42336, Q546K)
In short: as §1

AURKB = AURKB (Homo sapiens, UniProt Q96GD4)
In short: as §1

PIK3C2B = PIK3C2B (Homo sapiens, UniProt O00750)
In short: as §1

ERK8 = target: T5, ERK8 (Homo sapiens, UniProt Q8TD08)
T5 construct: gene MAPK15
T5 sequence (Q8TD08 whole entry): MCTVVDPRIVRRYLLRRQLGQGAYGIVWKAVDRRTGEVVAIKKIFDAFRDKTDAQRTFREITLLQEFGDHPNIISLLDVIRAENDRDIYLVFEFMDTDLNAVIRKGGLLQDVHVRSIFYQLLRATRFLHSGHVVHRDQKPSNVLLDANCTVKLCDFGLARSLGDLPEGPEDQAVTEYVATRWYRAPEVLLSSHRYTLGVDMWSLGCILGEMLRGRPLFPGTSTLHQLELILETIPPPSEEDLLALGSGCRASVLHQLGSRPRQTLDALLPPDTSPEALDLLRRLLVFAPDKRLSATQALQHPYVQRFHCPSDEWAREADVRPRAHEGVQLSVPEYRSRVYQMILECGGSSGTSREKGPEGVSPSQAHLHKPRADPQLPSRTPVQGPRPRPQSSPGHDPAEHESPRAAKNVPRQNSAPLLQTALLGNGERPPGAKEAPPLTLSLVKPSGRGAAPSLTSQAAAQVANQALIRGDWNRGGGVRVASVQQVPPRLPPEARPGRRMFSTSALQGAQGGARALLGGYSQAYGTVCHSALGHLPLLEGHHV
In short: as §1

MEK4 = target: T6, MEK4 (Homo sapiens, UniProt P45985)
T6 construct: gene MAP2K4
T6 sequence (P45985 whole entry): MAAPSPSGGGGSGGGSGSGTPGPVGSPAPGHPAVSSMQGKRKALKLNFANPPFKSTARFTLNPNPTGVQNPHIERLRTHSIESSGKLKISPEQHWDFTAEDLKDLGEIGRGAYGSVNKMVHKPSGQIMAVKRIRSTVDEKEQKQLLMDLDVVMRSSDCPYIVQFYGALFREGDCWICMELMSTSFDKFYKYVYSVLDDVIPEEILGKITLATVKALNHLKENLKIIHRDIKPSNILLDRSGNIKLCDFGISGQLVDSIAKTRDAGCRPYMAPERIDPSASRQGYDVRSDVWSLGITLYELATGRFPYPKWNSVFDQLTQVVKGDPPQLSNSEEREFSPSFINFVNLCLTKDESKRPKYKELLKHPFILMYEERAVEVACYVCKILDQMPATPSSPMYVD
In short: as §1

CDK7 = CDK7 (Homo sapiens, UniProt P50613)
Chain of CDK7 (P50613 whole entry): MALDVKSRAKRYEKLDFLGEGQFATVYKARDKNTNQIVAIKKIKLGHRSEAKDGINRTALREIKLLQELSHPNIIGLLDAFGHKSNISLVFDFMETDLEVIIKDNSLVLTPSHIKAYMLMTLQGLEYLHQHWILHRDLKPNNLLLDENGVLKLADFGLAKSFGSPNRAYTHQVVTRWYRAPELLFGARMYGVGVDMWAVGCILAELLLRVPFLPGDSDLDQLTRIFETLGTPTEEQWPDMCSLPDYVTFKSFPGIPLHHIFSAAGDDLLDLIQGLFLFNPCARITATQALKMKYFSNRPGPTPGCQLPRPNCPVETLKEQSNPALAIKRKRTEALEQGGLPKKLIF
In short: as §1

NDR2 = target: T7, NDR2 (Homo sapiens, UniProt Q9Y2H1)
T7 construct: gene STK38L
In short: as §1

CLK2 = CLK2 (Homo sapiens, UniProt P49760)
In short: as §1

RIPK1 = RIPK1 (Homo sapiens, UniProt Q13546)
Chain of RIPK1 (Q13546 whole entry): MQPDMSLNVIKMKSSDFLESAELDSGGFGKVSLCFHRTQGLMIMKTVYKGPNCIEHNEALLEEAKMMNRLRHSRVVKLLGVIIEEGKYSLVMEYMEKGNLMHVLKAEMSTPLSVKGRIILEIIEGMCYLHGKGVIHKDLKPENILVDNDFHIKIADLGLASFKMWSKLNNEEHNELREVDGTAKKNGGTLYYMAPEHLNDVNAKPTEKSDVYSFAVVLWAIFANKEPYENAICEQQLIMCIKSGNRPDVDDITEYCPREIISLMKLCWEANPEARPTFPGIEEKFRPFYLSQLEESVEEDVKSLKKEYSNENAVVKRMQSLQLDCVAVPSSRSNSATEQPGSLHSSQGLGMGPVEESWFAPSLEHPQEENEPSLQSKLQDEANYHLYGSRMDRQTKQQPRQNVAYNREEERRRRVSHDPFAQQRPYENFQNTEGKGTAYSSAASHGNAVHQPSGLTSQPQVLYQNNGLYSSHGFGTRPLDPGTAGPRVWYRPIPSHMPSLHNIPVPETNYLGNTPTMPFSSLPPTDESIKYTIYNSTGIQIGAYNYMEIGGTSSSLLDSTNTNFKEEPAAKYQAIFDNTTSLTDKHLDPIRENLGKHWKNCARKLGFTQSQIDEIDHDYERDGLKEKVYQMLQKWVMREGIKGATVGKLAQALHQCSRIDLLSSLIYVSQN
In short: as §1

AKT3 = AKT3 (Homo sapiens, UniProt Q9Y243)
Chain of AKT3 (Q9Y243 whole entry): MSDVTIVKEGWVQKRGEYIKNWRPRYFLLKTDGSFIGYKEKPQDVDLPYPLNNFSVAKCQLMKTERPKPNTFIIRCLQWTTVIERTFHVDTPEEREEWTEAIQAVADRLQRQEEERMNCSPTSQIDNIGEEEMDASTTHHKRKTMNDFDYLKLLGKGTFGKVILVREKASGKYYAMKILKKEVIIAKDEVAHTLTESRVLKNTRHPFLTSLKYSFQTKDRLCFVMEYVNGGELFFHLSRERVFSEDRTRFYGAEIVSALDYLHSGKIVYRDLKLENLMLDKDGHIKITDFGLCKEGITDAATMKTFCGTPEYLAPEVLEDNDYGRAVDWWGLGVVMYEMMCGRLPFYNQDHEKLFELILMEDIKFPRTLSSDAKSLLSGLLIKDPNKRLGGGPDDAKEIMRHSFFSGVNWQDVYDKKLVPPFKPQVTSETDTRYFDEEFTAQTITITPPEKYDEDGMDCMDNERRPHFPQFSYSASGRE
In short: as §1

TRKB = target: T8, TRKB (Homo sapiens, UniProt Q16620)
T8 construct: gene NTRK2
In short: as §1

ANKK1 = ANKK1 (Homo sapiens, UniProt Q8NFD2)
In short: as §1

PAK1 = PAK1 (Homo sapiens, UniProt Q13153)
Chain of PAK1 (Q13153 whole entry): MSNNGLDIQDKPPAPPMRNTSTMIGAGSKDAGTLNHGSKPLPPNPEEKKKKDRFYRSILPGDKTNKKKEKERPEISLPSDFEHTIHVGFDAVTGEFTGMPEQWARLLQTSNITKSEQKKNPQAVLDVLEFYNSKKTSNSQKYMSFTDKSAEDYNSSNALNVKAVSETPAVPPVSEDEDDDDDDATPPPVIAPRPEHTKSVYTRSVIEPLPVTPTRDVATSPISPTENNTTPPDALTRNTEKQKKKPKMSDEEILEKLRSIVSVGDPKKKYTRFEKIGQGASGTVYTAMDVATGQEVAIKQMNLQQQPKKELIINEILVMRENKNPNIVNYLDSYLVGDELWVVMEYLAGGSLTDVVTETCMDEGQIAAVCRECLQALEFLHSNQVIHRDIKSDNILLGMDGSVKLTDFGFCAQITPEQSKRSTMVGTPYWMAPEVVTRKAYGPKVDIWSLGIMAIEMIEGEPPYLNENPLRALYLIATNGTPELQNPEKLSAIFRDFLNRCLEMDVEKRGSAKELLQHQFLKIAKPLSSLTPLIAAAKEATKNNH
In short: as §1

FLT3(D835V) = FLT3(D835V) (Homo sapiens, UniProt P36888, D835V)
In short: as §1

ICK = target: T9, ICK (Homo sapiens, UniProt Q9UPZ9)
T9 construct: gene CILK1
In short: as §1

AAK1 = AAK1 (Homo sapiens, UniProt Q2M2I8)
Chain of AAK1 (Q2M2I8 whole entry): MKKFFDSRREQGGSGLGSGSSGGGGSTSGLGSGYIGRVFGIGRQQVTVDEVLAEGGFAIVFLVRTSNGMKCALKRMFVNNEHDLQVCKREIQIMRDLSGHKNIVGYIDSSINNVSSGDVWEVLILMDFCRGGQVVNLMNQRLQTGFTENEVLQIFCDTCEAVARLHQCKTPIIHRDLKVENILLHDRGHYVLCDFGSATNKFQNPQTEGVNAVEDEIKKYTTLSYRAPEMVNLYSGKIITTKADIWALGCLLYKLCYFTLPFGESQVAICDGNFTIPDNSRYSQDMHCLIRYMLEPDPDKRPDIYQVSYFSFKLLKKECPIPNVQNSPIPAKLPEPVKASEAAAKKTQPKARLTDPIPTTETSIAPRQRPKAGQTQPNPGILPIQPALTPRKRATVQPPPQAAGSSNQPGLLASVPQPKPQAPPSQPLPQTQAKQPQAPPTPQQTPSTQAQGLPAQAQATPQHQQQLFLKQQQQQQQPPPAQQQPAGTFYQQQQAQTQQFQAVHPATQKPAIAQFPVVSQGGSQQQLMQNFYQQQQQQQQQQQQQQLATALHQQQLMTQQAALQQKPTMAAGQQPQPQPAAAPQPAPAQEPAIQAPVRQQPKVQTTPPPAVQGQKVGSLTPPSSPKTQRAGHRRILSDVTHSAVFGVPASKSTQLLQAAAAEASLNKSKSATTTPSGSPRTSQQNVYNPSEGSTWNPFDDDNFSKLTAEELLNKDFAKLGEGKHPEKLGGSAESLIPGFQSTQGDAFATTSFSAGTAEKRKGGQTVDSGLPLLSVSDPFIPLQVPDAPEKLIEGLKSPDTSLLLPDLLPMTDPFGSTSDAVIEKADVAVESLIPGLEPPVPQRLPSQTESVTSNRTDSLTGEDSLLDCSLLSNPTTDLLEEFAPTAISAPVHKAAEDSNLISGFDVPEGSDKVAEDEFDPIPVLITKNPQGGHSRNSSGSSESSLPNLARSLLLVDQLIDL
In short: as §1

PIP5K2C = target: T10, PIP5K2C (Homo sapiens, UniProt Q8TBX8)
T10 construct: gene PIP4K2C
In short: as §1

In the case of [O-][S@@+](Cc1cncs1)C(c1ccccc1)c1ccccc1 [S-CE-123, (S)-5-((Benzhydrylsulfinyl)Methyl)Thiazole], the remaining binding at 2.8 µM (PRKG1) is reported as 100%, the remaining binding at 2.8 µM (QSK) is reported as 93% and the remaining binding at 2.8 µM (NIM1) is reported as 97%. For the same molecule, the remaining binding at 2.8 µM (TIE2) was 100%, the remaining binding at 2.8 µM (KIT(L576P)) was 99% and the remaining binding at 2.8 µM (PIK3CG) was 70%. It also gave a remaining binding at 2.8 µM (ACVR2A) of 100%, a remaining binding at 2.8 µM (HIPK3) of 91% and a remaining binding at 2.8 µM [1] of 92%. The remaining binding at 2.8 µM (PIK3CA(Q546K)) was 97%, the remaining binding at 2.8 µM (AURKB) was 78% and the remaining binding at 2.8 µM (PIK3C2B) was 98%. The remaining binding at 2.8 µM (ERK8) was 100%, the remaining binding at 2.8 µM (MEK4) was 100% and the remaining binding at 2.8 µM (CDK7) was 70%. For the same molecule, the remaining binding at 2.8 µM (NDR2) was 82%, the remaining binding at 2.8 µM (CLK2) was 93% and the remaining binding at 2.8 µM (RIPK1) was 80%. For the same molecule, the remaining binding at 2.8 µM (AKT3) was 99%, the remaining binding at 2.8 µM (TRKB) was 100% and the remaining binding at 2.8 µM (ANKK1) was 100%. It also gave a remaining binding at 2.8 µM (PAK1) of 92%, a remaining binding at 2.8 µM (FLT3(D835V)) of 100% and a remaining binding at 2.8 µM (ICK) of 91%. For the same molecule, the remaining binding at 2.8 µM (AAK1) was 88% and the remaining binding at 2.8 µM (PIP5K2C) was 100%.
